Data reported in publication PMC11955804, “Histidine-rich enantiomeric peptide coacervates enhance antigen sequestration and presentation to T cells” (Chemical Science, 2025).

What was measured:
HEK293T cells = experiment: eGFP plasmid DNA transfection; assay type: cell-based; conditions: coacervates loaded with eGFP DNA plasmid 2.5 μg/mL; qualitative microscopy after 96 h
Description: findings were not OVA-specific.
Reserve University) 14,15.
Cytotoxicity and transfection assays
Untreated cells or ethanol treated cells served as controls. Cytotoxicity of all inhibitors was evaluated similarly. For transfection studies, […]
Biosystems, Catalog number: 4060; 2.5 μg/mL). Cells treated with the naked plasmid or […]
complexed with lipofectamine 2000 (3.2 µL) served as controls. GFP expression was assessed qualitatively after 96 h using a Lionheart FX automated microscope (BioTek Instruments, Inc.).
We employed TrueCut Cas9 protein for the knockout of CD55 gene using CRISPR technology, aided with chiral (GHGXY)4 peptide coacervates. The transfection of the Cas9 RNPs (protein + gRNA) was done according to manufacturer’s protocol (Invitrogen). Briefly, A549 cells were cultured in complete DMEM media (supplemented with 10% FBS and 5% Pen Strep) in T-75 flask till full confluency. Cells were then plated at a concentration of 2×10^4 cells/mL in 24 well […]
plates in DMEM media for 24 h. […]
confluent. For positive control, we mixed the TrueCutTM Cas9 protein/sgRNA in Opti-MEM media (17.8 μL) at a concentration of 12.50 μg (75 pmol; Stock 0.5 mg/mL) and 2.4 μg (75 pmol; Stock 1 nmol) for protein and sgRNA respectively, containing 50 μL LipofectamineTM Cas 9 PlusTM reagent (Total Volume: 100 μL) in a RNAse -free microcentrifuge tube. […]

hiPSC-CMs = experiment: Confocal microscopy of cellular uptake in hiPSC-CMs; assay type: cell-based, human; conditions: for interaction with the cell membrane of hiPSC-CMs: confocal microscopy; for cellular uptake / localization in hiPSC-CMs: eGFP loaded coacervates (100 nM eGFP), 30 min, 37 °C, confocal
Description: Stem cell-derived cardiomyocytes and confocal microscopy
Wild type hiPSCs (WT iPSC 11) were received from the Genome Engineering and Stem Cell Center at Washington University School of Medicine. hiPSCs were cultured in mTeSR Plus […]
medium ([…] Technologies, USA) on 6-well plates coated with Matrigel (1:100, Corning) and grown at 37 °C with 5% CO2. Cells were grown to 80–90% confluency and then passaged as clusters using Versene (Thermo Scientific, USA) into 6-well plates for hiPSC maintenance and […]
into 24-well plates for hiPSC differentiation. Once hiPSCs reached 90% confluence, they were differentiated into cardiomyocytes using small-molecule manipulation of Wnt signaling 10. Non-cardiomyocytes were removed via lactate purification on days 20 and 22 before replating singularized hiPSC cardiomyocytes (hiPSC-CMs) at 40,000 cells per 35-mm glass-bottom dish. hiPSC-CMs were treated with enantiomeric leucine or valine coacervates loaded with eGFP protein (Novus Biologicals, Catalog number: NBP2-34923; 50 μL, final concentration of 100 nM eGFP) for 30 min at 37°C. Samples were fixed with 2% paraformaldehyde (PFA) and three PBS washes (10 min at RT). The cell membrane was stained with wheat germ agglutinin (WGA; Fisher Scientific, Catalog number: W32466; 0.25 μL/mL) conjugated to Alexa Fluor 647 (10 min at RT), followed by three PBS washes (5 minutes at RT). Confocal micrographs of singular hiPSC-CMs were acquired using a Leica Sp8 Lightning single-photon confocal microscope […]
numerical aperture oil immersion objective, two HyD GaAsP detectors, and two high-sensitivity photomultiplier tube detectors. Images were collected as z-stacks (presented as top or bottom view, and single plane) and by Nyquist sampling (or greater) as previously described 11.
All animal experiments were conducted under approved protocols by the Institutional Animal Care and Use Committee (IACUC) at Washington University in St Louis. Femoral and tibial bone marrow from C57BL/6 mice were collected and RBCs lysed using ACK buffer. The cells were plated at 5×10^6 cells per petri dish (150 mm) and differentiated for 7–9 days in complete RPMI-1640 medium (containing 10% heat-inactivated FBS), 55 µM β-mercaptoethanol, 1 mM sodium pyruvate, 10 mM HEPES, 1× MEM non-essential amino acids, 20 ng/mL GM-CSF, 10

[1] = Droplet coalescence assay; assay type: physicochemical; conditions: video still images over 15 min; mixing of fluorophore-loaded droplets
Description: wavelength range of 215–260 nm with a bandwidth of 1.00 nm, 0.5 nm step. Solvent background was subtracted from each spectrum and data converted to mean residue ellipticity (MRE).
Droplet coalescence assays
Experiments were conducted to visualize the dynamic process of droplet fusion by capturing a series of still images over 15 min, with each acquisition every 500 ms. Contrast and brightness were adjusted to ensure optimal visibility of the coacervates, and noise cancellation was applied to reduce background interference. Frame correction aligned the images to account for shifts that occurred during capture. Additional enhancements included sharpening to visualize finer details and color correction to ensure that the visual representation closely matched the actual observation. The images were meticulously stacked to create a continuous video sequence that provided a dynamic view of the peptides' behavior, showing the evolution of coacervates from their initial formation, through stabilization and fusion. Significant fusion events were identified and marked with arrows. Advanced tracking algorithms were employed to follow movement and changes within the coacervates, and event segmentation was used to isolate specific interactions […]
Stem cell-derived cardiomyocytes and confocal microscopy […]

(GHGLY)4 [GL 20]
eGFP expression after plasmid delivery (HEK293T cells): robust eGFP expression
interaction with the cell membrane of hiPSC-CMs (hiPSC-CMs): interacted with and traversed the cell membrane
cellular uptake / localization in hiPSC-CMs (hiPSC-CMs): confirmed their localization within the cells
droplet fusion (coalescence) [1]: multiple rapid fusion events

(GHGVY)4 [GV 20]
eGFP expression after plasmid delivery (HEK293T cells): Poor eGFP expression
interaction with the cell membrane of hiPSC-CMs (hiPSC-CMs): this behavior was not observed
cellular uptake / localization in hiPSC-CMs (hiPSC-CMs): confirmed their localization within the cells
droplet fusion (coalescence) [1]: did not exhibit fusion behavior
